Assay results reported in patent publication US20100041662A1, “Heterocyclic compounds as antiinflammatory agents” (priority 2006, published 2010).

Experiments:
[1] = test system: Phospho-PKB in U87MG cells; assay: Detection of phospho-PKB in U87MG cells by ELISA; format: cell-based; conditions: Homo sapiens, U-87 MG; assay not given; follows the PI3K/DNA-PK/phospho-PKB U87MG methods
Protocol: U87MG cells (human glioblastoma, ATCC No. HTB-14) are trypsinized, counted in a CASY cell counter (Schärffe systems, Göttingen, Germany), diluted in fresh complete DMEM high glucose medium to load, per well, 150 μL cell suspension containing 4×10^4 cells, and test plates incubated for 18 hours. In parallel, 50 μL of coating antibody, at the desired concentration in PBS/O is loaded in each well of the ELISA plates, and plates are kept for 2 hours at room temperature. This ELISA assays is performed in black flat-bottom 96-well plates (Microtest™, Falcon Becton-Dickinson, Ref.: 353941) sealed with Plate Sealers (Costar-Corning, Ref: 3095). Medium in plates is discarded and replaced by complete DMEM high glucose medium containing either 0.1% DMSO or 0.1% inhibitor at titers (7) between […] in DMSO. After 30 minutes of contact, the medium is quickly removed by aspiration, plates are then placed on ice and immediately cells lyzed with 70 μL of Lysis buffer. In parallel, the 96 wells plates prepared with the coating antibody (1/250 diluted (in PBS/O) Anti-Akt1 C-20, goat, Santa-Cruz-1618, Santa Cruz Biotechnology, Inc., Santa Cruz, Calif., USA) are washed 3 times for 1 minute with PBS/O containing 0.05% Tween 20 and 0.1% Top-Blocks (derivative of gelatine that blocks unspecific binding sites on surfaces; Sigma-Aldrich, Fluka, Buchs, Switzerland, Ref.: 37766), and remaining protein binding sites blocked to prevent non-specific interactions with 200 μL of PBS containing 3% Top Block®, for 2 hours at room temperature. Well content is replaced with 50 μL of samples from treated cells, and plates are incubated for 3 hours at 4° C. The ELISA assays are always done in parallel with the following controls, in 6 replicates: U87MG (untreated control) or Lysis buffer alone (LB). […] The luminescence is read immediately on a Top-Count NXT (Packard Bioscience) luminometer.

[2] = test system: dimethylnitrosamine induced liver fibrosis; conditions: cited from earlier work
[3] = given therapeutically to rat, 3 weeks treatment

IC50 [1] [nM]	SMILES	side effects ([2]; during the 3 weeks treatment)	inhibited extracellular matrix deposition [2, 3] [%]	prevented death rate [2, 3] [%]
106	OC1CCC(Nc2ccc3ncc(-c4ccc(-n5cccn5)cc4)n3n2)CC1 (stereo not drawn) [Example 1.5, 4-[3-(4-Pyrazol-1-yl-phenyl)-imidazo[1,2-b]pyridazin-6-ylamino]-cyclohexanol]			
	c1ccc(-c2cc(-c3cn[nH]c3-c3ccccn3)ccn2)cc1 [GW6604]	no obvious side effects	60	40
753	OCC1CCC(Nc2ccc3ncc(-c4ccc(-n5cccn5)cc4)n3n2)CC1 (stereo not drawn) [Example 1.9, {4-[3-(4-Pyrazol-1-yl-phenyl)-imidazo[1,2-b]pyridazin-6-ylamino]-cyclohexyl}-methanol]			
666	OC1CCC(Nc2ccc3ncc(-c4ccc(-n5cncn5)cc4)n3n2)CC1 (stereo not drawn) [Example 1.8, 4-[3-(4-[1,2,4]Triazol-1-yl-phenyl)-imidazo[1,2-b]pyridazin-6-ylamino]-cyclohexanol]			
